According to patent EP0381374A1, “Phosphodiesterase inhibitors” (LES LABORATOIRES BEECHAM S.A., priority 1989, dated 1990):

How the values were obtained:
[1] = tested on: Canine cardiac myofibrillar Ca⁺⁺-dependent Mg⁺⁺ ATPase; test: Measurement of myofibrillar Ca++-dependent Mg++-ATPase activity; assay type: biochemical; conditions: Concentration: 3 x 10⁻⁵ molar; for Max ATPase activity(%): percent change of ATPase activity for pCa = 5.47; for Shift in pCa50 (ΔpCa50): shift of the pCa giving 50% of the maximal control ATPase activity, 21°C, pH 7.0
Method: 1. Measurement of myofibrillar Ca++-dependent Mg++-ATPase activity
The effect on Ca++sensitivity and on maximal activity of myofibrillar Ca++-dependent Mg++-ATPase was determined on canine cardiac myofibrils.
(a) Contractile protein preparation
Cardiac myofibrils free of membrane contaminants were prepared from left ventricular tissue of dog hearts using a modification of the method described by SOLARO et al, Biochem. Biophys. Acta, 245, 259-262, (1971). Before centrifugation, the heart homogenate was filtered through gauze.
After Triton X-100 treatments, the myofibrillar fraction was washed once by resuspension and centrifugation in 10 volumes of 1 mM EGTA, […] KCl, 30 mM imidazole, 2 mM MgCl₂, pH 7.0. The pellet was then washed three times in 10 volumes of the same buffer without EGTA. Before the last centrifugation, the suspension of myofibrils was filtered through a stainless steel sieve with 0.25 mm meshes.
Myofibrils were kept in pellet overnight. Before use, the pellet was suspended in a small amount of buffer, the protein concentration was determined by the method of BRADFORD M., Anal. Biochem., 1976, 72, 248 and adjusted in order to have a concentration between 6 and 7mg/ml, using gamma globuline as standard.
(b) Myofibrillar ATPase activity
Ca++-dependent myfibrillar ATPase activity was determined at 21 °C, pH 7.0, by measuring the rate of release of inorganic phosphate. All assays were performed within 24hrs. of final purification, using the method described by SOLARO and RUEGG, CIRC. RES., 51, 290-4,(1982). Reaction mixtures (4ml) containing 0.6 - 0.7 mg/ml myofibrillar protein, 80mM KCl, 20 mM imidazole, 3 mM MgCl₂, 1 mM EGTA, the desired amount of CaCl₂, and the indicated concentration of drug or appropriate vehicle were preincubated for 6 min. prior to assay. The amount of CaCl₂ was varied between 0 and 0.9 mM and the pca (-log free Ca++) computed using 2.514 x 10⁶ M⁻¹ as the apparent affinity of Ca++ for EGTA at pH 7.0.
Reactions were initiated by the addition of Na₂ATP to final concentration of 2 mM. After an incubation period of 12 min., reactions were quenched by the addition of an equal volume of ice-cold 10% trichloroacetic acid. The protein was pelleted by centrifugation (2000g, 15 min.) and Pi was assayed in the supernatant fraction using a modification of the method described by LANZETTA et al, Anal. Biochem., 100, 95-97, (1979).
The following solutions were prepared: • (1) 3.7% ammonium heptamolybdate in 0.12 N H₂SO₄ • (2) 0.074% malachite green oxalate in 1% polyvinylic alcohol.
The colour reagent was prepared by mixing an equal volume of solution (1) and (2) 15 min. before the assay. For the assay, 1700 µl of 1% H₂SO₄ and 1 ml of colour reagent were added to 100 µl of sample. Colour development occurred at room temperature for 30 min. and was quenched by the addition of 200 µl of 1 M tri-potassium citrate. The absorbance was measured at 620 millimicrons.
The effect of each compound, tested at the indicated concentration, on the relation between pCa and percent activation was determined taking 100% for the maximum ATPase activity obtained with vehicle alone. The effect on Ca++ sensitivity was quantified by measuring the shift of the pCa giving 50% of the maximal control ATPase activity.
The effect on maximal ATPase activity was expressed as the percent change of ATPase activity for pCa = 5.47.

[2] = target: T1, CGI-PDE (i.e., c-GMP-inhibited PDE) (Canis lupus familiaris, UniProt A0A8I3NYE0); test: Inhibition of cardiac phosphodiesterases, Fraction IV (CGI-PDE); assay type: biochemical; conditions: canine left ventricle PDE Fraction IV
T1 construct: isoforms of canine left ventricle were separated by column ion exchange chromatography; from tissue; host or cells: canine left ventricle, Fractogel TSK DEAE 650 fraction IV
T1 sequence (A0A8I3NYE0 1-1135): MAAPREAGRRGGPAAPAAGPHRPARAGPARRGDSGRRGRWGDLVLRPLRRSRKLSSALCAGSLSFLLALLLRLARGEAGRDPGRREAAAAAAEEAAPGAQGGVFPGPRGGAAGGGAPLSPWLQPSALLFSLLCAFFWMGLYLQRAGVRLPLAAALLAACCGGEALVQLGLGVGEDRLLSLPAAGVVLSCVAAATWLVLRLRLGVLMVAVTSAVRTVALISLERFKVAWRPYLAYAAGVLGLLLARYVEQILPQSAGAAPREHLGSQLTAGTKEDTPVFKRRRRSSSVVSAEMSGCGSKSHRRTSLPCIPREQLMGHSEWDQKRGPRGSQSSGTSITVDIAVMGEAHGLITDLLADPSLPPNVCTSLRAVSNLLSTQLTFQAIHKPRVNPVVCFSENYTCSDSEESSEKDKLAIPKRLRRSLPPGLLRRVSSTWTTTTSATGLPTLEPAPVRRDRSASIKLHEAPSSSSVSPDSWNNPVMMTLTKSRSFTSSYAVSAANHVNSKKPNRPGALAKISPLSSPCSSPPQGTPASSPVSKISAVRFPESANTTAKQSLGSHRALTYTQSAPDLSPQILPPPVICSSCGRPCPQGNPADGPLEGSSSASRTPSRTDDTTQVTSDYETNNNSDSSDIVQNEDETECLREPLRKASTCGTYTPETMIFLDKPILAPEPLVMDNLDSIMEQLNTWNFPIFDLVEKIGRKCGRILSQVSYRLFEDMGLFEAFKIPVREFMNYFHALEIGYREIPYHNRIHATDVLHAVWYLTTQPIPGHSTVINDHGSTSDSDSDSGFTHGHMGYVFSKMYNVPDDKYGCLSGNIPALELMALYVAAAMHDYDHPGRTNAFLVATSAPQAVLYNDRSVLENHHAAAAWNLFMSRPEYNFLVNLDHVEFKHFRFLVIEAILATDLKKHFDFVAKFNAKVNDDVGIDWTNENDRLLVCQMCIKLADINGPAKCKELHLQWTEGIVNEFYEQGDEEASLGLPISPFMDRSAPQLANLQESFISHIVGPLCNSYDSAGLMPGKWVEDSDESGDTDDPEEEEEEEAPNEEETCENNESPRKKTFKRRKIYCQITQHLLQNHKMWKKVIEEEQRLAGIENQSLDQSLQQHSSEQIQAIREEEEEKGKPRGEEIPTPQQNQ
Method: 2. Inhibition of Cardiac Phosphodiesterases
The phosphodiesterases (PDE) isoforms of canine left ventricle were separated by column ion exchange chromatography, using a minor modification of the method previously described by Alvarez et al. (Mol. Pharmacol., 1986, 29, 554-560). A Fractogel TSK DEAE 650 column was used and the PDEs were eluted using a continuous sodium acetate gradient (50 to 500 mM). The flow rate was 1.2ml/min and fractions of c.a. 8ml were collected as described by Weishaar et al. (Biochem. Pharmacol., 1986, 35, 787-800).
Four isoforms were identified • i) Fraction I or CAM-PDE (i.e. Ca⁺⁺/calmodulin-activated PDE), which hydrolyses both c-AMP and c-GMP, and presents a low Km for c-AMP over a wide range of concentration. It is activated by Ca⁺⁺/calmodulin. • ii) Fraction II or CGS-PDE (i.e. c-GMP-stimulated PDE), which hydrolyses more specifically c-GMP, and presents a high Km, for c-AMP over a wide range of concentration. It is stimulated by c-GMP. • iii) Fraction III or NCGI-PDE (i.e. not c-GMP-inhibited PDE), which hydrolyses more specifically c-AMP and presents two relatively low Km sites of affinity. It is not inhibited by c-GMP. iv) Fraction IV or CGI-PDE (i.e., c-GMP-inhibited PDE), which also hydrolyses more specifically c-AMP, and also presents two relatively low Km site of affinity. It is inhibited by c-GMP.
The inhibitory effect of the test compounds was expressed as the IC₅₀, i.e. the concentration which inhibits the activity by 50%, this value being expressed in micromoles.

| Compound | Max ATPase activity(%) [1] | Shift in pCa50 (ΔpCa50) [1] | IC50 [2] [µM] |
| --- | --- | --- | --- |
| 1-Cyclohexylmethyl-5-(3,6-dihydro-6-methyl-2-oxo-2H-1,3,4-thiadiazin-5-yl)-1,3-dihydro-3,3-dimethyl-2H-indol-2-one [Example 9] | +11% | 0.32 | – |
| CC1SC(=O)NN=C1c1ccc2c(c1)C1(CCCC1)C(=O)N2C(=O)c1ccc(N)cc1.Cl (stereo not drawn) [Example 1, 1′-[(4-Aminophenyl)carbonyl]-5′-(3,6-dihydro-6-methyl-2-oxo-2H-1,3,4-thiadiazin-5-yl)-spiro[cyclopentane-1,3′-[3H]-indol]-2′(1′H)-one, hydrochloride] | -18% | 0.19 | 0.87 |
| CC1SC(=O)NN=C1c1ccc2c(c1)C(C)(C)C(=O)N2C(=O)Nc1ccccc1 (stereo not drawn) [Example 2, 2,3-Dihydro-5-(3,6-dihydro-6-methyl-2-oxo-2H-1,3,4-thiadiazin-5-yl)-3,3-dimethyl-2-oxo-N-phenyl-1H-indole-1-carboxamide] | – | – | 15 |
| CCOC(=O)CN1C(=O)C(C)(C)c2cc(C3=NNC(=O)SC3C)ccc21 (stereo not drawn) [Example 3, Ethyl 2,3-dihydro-5-(3,6-dihydro-6-methyl-2-oxo-2H-1,3,4-thiadiazin-5-yl)-3,3-dimethyl-2-oxo-N-1H-indole-1-acetate] | – | 0.23 | 6.7 |
| CC1SC(=O)NN=C1c1ccc2c(c1)C(c1ccccc1)C(=O)N2 (stereo not drawn) [Example 4, 1,3-Dihydro-5-(3,6-dihydro-6-methyl-2-oxo-2H-1,3,4-thiadiazin-5-yl)-3-phenyl-2H-indol-2-one] | – | 0.68 | 3.2 |
| CC1SC(=O)NN=C1c1ccc2c(c1)C(C)(C)C(=O)N2Cc1ccccc1 (stereo not drawn) [Example 5, 1,3-Dihydro-5-(3,6-dihydro-6-methyl-2-oxo-2H-1,3,4-thiadiazin-5-yl)-3,3-dimethyl-1-(phenylmethyl)-2H-indol-2-one] | – | 0.38 | – |
| CC1SC(=O)NN=C1c1ccc2c(c1)C(C)(C)C(=O)N2c1ccccc1 (stereo not drawn) [Example 7, 1,3-Dihydro-5-(3,6-dihydro-6-methyl-2-oxo-2H-1,3,4-thiadiazin-5-yl)-3,3-dimethyl-1-phenyl-2H-indol-2-one] | – | 0.20 | – |
| CC1SC(=O)NN=C1c1ccc2c(c1)C(C1CCCCC1)C(=O)N2 (stereo not drawn) [Example 10, 3-Cyclohexyl-1,3-dihydro-5-(3,6-dihydro-6-methyl-2-oxo-2H-1,3,4-thiadiazin-5-yl)-2H-indol-2-one] | – | 0.99 | – |
| O=C1NN=C(c2ccc3c(c2)C(Sc2ccccc2)C(=O)N3)CS1 (stereo not drawn) [Example 11, 1,3-Dihydro-5-(3,6-dihydro-2-oxo-2H-1,3,4-thiadiazin-5-yl)-3-phenylthio-2H-indol-2-one] | – | 0.21 | – |
| O=C1NN=C(c2ccc3c(c2)C(C2CCCCC2)C(=O)N3)CS1 (stereo not drawn) [Example 12, 3-Cyclohexyl-1,3-dihydro-5-(3,6-dihydro-2-oxo-2H-1,3,4-thiadiazin-5-yl)-2H-indol-2-one] | – | 0.49 | – |
